What all share (assay): kinome screen (33PanQinase)
Common to all, as to format: biochemical

The target in one experiment is T1, CDK4/CycD2 (Homo sapiens, UniProt P11802).
T1 construct: purchased Reaction Biology Europe GmbH (formerly ProQinase)
On the procedure:
(§1) The Kinome Screening was performed by Reaction Biology Europe GmbH (http://reactionbiology.com; Freiburg i. Br., Germany).

In another experiment the target is T2, CDK7/CycH/MAT1 (Homo sapiens, UniProt P50613).
T2 construct: purchased Reaction Biology Europe GmbH (formerly ProQinase)
T2 sequence (P50613 whole entry): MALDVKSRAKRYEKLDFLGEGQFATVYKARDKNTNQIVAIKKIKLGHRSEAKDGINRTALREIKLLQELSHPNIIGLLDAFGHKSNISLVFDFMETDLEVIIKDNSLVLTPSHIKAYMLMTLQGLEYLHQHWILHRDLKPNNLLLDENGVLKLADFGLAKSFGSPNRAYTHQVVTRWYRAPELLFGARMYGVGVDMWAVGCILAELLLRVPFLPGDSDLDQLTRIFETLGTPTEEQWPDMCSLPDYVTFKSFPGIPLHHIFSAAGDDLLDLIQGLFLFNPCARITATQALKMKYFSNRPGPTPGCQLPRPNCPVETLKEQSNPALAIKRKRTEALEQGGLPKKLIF
T2 sequence (P51946 whole entry partner): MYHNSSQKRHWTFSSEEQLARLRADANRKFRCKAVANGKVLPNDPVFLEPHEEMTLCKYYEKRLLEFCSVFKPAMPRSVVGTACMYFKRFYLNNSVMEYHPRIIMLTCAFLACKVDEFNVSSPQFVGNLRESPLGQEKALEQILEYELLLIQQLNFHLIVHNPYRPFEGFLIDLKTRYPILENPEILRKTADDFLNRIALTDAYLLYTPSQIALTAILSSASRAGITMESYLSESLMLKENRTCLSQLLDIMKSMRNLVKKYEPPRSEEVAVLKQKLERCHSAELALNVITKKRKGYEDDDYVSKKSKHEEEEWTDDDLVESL
T2 sequence (P51948 whole entry partner): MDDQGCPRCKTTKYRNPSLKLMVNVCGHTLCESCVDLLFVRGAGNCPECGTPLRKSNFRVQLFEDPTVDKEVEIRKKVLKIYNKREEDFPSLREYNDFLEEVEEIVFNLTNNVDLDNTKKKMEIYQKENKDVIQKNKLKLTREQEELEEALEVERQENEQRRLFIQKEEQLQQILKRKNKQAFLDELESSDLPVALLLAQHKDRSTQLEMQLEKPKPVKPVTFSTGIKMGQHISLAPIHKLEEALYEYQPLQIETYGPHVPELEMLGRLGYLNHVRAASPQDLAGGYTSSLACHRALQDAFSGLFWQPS
As to the method:
as §1

The target of another experiment is T3, DAPK2 (Homo sapiens, UniProt Q9UIK4).
T3 construct: purchased Reaction Biology Europe GmbH (formerly ProQinase)
T3 sequence (Q9UIK4 whole entry): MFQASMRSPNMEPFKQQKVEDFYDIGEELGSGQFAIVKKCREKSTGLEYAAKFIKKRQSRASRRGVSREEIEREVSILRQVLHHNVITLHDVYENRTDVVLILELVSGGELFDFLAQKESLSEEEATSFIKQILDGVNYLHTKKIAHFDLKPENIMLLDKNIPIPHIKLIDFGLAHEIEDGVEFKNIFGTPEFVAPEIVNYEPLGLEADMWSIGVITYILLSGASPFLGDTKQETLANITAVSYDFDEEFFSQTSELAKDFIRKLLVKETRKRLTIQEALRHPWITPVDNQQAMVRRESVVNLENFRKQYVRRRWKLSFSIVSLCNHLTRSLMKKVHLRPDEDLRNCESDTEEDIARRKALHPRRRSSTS
On the procedure:
as §1

Another experiment concerns the target T4, GRK2 (Homo sapiens, UniProt P25098).
T4 construct: purchased Reaction Biology Europe GmbH (formerly ProQinase)
T4 sequence (P25098 1-689): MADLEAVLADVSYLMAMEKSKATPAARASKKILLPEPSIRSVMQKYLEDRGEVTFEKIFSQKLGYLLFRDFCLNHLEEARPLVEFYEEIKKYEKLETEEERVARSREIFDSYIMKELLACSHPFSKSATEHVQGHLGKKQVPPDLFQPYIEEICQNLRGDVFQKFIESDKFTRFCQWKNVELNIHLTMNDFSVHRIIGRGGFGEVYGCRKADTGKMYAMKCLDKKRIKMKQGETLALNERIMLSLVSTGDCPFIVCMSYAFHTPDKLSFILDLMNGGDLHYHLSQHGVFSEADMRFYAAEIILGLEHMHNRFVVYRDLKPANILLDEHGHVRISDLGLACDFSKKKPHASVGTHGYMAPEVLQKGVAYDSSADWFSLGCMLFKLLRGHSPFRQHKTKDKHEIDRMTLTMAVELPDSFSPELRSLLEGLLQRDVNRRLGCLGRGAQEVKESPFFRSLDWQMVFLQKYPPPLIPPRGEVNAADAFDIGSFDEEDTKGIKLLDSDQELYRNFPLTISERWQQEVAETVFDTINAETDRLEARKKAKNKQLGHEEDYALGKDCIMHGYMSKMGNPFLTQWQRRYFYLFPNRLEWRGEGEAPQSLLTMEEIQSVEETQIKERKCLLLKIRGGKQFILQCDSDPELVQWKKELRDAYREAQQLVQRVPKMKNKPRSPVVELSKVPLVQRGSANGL
On the procedure:
as §1

The next experiment has as its target T5, JNK3 (Homo sapiens, UniProt P53779).
T5 construct: purchased Reaction Biology Europe GmbH (formerly ProQinase)
As to the method:
as §1

The target in another experiment is T6, PKCν (Homo sapiens, UniProt O94806).
T6 construct: purchased Reaction Biology Europe GmbH (formerly ProQinase)
T6 sequence (O94806 1-890): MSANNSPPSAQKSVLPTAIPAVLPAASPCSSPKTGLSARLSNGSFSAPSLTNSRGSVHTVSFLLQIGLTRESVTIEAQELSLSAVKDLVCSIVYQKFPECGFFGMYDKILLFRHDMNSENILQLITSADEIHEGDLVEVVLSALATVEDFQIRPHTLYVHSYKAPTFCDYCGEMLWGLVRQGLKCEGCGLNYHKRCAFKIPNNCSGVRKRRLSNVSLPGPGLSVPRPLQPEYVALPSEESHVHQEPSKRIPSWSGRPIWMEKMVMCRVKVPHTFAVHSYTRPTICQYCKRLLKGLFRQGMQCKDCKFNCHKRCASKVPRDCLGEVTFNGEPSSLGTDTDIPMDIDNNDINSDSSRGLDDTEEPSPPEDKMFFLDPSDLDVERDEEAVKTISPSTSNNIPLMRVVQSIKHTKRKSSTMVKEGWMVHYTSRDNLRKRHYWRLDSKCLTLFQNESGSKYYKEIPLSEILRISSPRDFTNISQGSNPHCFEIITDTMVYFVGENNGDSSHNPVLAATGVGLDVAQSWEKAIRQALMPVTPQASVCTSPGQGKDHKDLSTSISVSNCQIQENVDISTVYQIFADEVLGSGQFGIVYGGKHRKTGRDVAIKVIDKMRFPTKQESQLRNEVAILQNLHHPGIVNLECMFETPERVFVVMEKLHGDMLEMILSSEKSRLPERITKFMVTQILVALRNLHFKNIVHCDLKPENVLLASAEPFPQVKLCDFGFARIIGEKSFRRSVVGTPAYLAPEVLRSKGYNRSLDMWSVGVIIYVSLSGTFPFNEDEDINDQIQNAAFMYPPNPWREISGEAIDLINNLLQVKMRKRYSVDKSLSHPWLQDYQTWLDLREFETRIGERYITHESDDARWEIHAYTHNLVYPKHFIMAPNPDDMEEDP
On the procedure:
as §1

The target of another experiment is T7, STK39 (Homo sapiens, UniProt Q9UEW8).
T7 construct: purchased Reaction Biology Europe GmbH (formerly ProQinase)
On the procedure:
as §1

The next experiment concerns the target T8, TBK1 (Homo sapiens, UniProt Q9UHD2).
T8 construct: purchased Reaction Biology Europe GmbH (formerly ProQinase)
T8 sequence (Q9UHD2 1-729): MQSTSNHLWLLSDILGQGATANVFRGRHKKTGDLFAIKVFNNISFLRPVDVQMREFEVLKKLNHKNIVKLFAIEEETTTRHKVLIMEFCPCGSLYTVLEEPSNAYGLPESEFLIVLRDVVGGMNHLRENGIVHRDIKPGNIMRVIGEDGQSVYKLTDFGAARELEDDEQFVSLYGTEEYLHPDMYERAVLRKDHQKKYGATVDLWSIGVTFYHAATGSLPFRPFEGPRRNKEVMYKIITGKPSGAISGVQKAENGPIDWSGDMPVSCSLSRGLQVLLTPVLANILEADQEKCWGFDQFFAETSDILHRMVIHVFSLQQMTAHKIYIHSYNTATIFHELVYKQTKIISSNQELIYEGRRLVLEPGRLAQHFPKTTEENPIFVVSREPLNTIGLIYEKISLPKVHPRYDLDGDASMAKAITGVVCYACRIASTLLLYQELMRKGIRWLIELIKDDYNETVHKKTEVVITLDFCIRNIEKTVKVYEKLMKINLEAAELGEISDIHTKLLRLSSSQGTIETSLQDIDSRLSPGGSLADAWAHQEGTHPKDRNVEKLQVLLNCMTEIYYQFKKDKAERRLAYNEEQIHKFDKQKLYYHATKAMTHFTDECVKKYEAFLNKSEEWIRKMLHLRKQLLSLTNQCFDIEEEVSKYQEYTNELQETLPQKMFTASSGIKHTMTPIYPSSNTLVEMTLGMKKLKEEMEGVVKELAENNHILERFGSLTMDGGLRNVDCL
On the procedure: as §1

Another experiment deals with T9, WNK2 (Homo sapiens, UniProt Q9Y3S1).
T9 construct: purchased Reaction Biology Europe GmbH (formerly ProQinase)
T9 sequence (Q9Y3S1 whole entry): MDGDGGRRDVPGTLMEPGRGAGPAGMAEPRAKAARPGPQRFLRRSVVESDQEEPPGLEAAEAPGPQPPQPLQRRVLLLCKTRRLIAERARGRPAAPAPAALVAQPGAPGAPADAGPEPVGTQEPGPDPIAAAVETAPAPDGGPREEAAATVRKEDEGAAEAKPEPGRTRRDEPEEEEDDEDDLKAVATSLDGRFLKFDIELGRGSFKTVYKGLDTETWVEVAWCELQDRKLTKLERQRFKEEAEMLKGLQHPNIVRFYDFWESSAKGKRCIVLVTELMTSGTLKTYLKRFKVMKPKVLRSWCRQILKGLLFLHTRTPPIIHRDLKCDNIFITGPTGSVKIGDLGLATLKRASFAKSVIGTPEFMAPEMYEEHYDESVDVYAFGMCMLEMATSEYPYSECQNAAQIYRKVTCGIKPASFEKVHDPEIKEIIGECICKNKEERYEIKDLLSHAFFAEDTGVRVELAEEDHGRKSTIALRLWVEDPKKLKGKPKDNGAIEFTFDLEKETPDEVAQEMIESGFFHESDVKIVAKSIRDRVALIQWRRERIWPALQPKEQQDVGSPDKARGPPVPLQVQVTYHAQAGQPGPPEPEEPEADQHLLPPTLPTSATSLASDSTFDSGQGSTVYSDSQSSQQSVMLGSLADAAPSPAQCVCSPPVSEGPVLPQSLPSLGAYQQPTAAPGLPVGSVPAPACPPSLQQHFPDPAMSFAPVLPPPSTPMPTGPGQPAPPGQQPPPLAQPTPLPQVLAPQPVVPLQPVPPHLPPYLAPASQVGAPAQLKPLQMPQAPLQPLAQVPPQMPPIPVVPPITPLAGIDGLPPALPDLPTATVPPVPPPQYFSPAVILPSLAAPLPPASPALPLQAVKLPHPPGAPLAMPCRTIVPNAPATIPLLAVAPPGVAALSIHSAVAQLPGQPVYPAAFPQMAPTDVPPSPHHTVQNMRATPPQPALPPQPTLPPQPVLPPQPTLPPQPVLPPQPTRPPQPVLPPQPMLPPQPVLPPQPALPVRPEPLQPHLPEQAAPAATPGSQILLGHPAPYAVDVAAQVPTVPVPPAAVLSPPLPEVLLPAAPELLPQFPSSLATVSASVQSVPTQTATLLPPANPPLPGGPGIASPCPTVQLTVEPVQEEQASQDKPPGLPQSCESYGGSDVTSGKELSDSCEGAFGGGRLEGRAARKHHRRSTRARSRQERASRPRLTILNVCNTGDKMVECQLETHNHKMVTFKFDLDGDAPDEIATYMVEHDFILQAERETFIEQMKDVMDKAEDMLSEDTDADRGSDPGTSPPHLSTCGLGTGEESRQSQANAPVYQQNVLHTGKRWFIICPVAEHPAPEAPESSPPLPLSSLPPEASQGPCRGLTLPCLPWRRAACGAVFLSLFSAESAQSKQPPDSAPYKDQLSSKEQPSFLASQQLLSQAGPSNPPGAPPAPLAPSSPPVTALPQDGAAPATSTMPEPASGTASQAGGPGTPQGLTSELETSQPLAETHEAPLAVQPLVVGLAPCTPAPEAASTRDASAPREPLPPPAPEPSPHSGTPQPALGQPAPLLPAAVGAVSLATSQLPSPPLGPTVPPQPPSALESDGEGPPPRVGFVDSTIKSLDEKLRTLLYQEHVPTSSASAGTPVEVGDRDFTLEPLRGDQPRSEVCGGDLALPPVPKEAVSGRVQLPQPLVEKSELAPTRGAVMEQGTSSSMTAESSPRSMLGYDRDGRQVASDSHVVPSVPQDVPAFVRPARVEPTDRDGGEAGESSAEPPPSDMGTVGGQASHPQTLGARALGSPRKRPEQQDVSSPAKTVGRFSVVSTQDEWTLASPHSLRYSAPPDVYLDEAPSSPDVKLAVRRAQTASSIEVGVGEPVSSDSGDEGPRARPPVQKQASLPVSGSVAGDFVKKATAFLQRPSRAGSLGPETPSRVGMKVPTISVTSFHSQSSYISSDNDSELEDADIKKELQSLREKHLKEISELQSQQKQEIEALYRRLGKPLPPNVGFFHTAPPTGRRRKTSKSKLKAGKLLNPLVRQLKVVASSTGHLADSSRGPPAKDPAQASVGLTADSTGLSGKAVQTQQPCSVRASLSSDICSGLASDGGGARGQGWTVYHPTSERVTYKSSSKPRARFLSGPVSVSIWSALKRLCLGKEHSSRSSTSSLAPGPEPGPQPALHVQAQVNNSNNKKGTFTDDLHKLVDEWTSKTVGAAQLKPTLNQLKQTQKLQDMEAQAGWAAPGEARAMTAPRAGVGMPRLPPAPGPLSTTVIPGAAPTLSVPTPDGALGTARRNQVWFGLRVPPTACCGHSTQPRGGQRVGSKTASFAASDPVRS
As to the method: as §1

T1 sequence (P11802 whole entry): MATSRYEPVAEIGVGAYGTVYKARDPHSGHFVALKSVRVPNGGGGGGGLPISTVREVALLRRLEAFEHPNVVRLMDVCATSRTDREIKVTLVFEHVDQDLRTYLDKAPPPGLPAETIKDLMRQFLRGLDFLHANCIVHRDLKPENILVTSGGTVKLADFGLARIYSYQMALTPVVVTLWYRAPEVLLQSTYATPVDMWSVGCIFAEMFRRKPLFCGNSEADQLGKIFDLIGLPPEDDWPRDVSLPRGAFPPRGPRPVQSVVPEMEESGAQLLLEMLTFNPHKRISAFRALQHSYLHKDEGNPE
T1 sequence (P30279 whole entry partner): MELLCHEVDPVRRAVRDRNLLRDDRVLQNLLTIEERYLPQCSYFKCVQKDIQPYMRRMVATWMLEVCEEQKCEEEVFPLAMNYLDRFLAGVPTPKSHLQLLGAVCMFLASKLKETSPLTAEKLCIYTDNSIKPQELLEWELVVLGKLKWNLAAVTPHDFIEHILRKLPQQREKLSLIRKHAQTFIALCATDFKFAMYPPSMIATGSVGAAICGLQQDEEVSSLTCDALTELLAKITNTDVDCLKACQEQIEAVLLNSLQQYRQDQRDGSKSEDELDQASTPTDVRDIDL
T5 sequence (P53779 whole entry): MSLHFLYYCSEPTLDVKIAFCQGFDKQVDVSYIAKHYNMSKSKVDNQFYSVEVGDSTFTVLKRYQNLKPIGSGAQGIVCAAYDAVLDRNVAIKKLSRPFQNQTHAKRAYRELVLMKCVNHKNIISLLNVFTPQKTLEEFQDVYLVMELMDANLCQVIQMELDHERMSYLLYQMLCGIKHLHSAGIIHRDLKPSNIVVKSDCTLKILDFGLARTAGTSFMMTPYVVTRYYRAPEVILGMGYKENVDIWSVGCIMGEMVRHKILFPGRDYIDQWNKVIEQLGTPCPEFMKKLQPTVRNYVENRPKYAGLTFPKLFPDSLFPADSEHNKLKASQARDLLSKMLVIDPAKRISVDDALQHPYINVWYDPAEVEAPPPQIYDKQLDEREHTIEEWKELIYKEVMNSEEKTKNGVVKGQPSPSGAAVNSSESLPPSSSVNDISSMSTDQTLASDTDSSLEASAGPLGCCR

In the case of `COc1ccnc2[nH]cc(-c3cc(N)nc(N)c3)c12` [meriolin 16], the residual kinase activity is 81 % of control at CDK4/CycD2 (0.03 µM); 34 % of control at CDK4/CycD2 (0.3 µM); 44 % of control at CDK7/CycH/MAT1 (0.03 µM); 6 % of control at CDK7/CycH/MAT1 (0.3 µM); 106 % of control at DAPK2 (0.03 µM); 78 % of control on DAPK2 (0.3 µM). The residual kinase activity is on record as 96 % of control at GRK2 (0.03 µM); 106 % of control on GRK2 (0.3 µM); 73 % of control on JNK3 (0.03 µM); 68 % of control on JNK3 (0.3 µM); 89 % of control on PKCν (0.03 µM); 32 % of control at PKCν (0.3 µM). Also, the residual kinase activity was 77 % of control at STK39 (0.03 µM); 66 % of control at STK39 (0.3 µM); 114 % of control on TBK1 (0.03 µM); 99 % of control on TBK1 (0.3 µM); 99 % of control on WNK2 (0.03 µM); 86 % of control at WNK2 (0.3 µM).
Turning to `c1ccc(CNc2cc(-c3c[nH]c4ncccc34)ccn2)cc1` [meriolin 36], the residual kinase activity is 21 % of control at CDK4/CycD2 (0.3 µM); 3 % of control on CDK4/CycD2 (3 µM); 7 % of control on CDK7/CycH/MAT1 (0.3 µM); 2 % of control on CDK7/CycH/MAT1 (3 µM); 118 % of control at DAPK2 (0.3 µM); 67 % of control at DAPK2 (3 µM). Besides, the residual kinase activity on GRK2 (0.3 µM) is reported as 99 % of control; on GRK2 (3 µM), 51 % of control; at JNK3 (0.3 µM), 54 % of control; on JNK3 (3 µM), 13 % of control; at PKCν (0.3 µM) it was 62 % of control; at PKCν (3 µM), 17 % of control. Also, the residual kinase activity at STK39 (0.3 µM) is 40 % of control; at STK39 (3 µM), 19 % of control; on TBK1 (0.3 µM), 48 % of control; on TBK1 (3 µM) it was 10 % of control; at WNK2 (0.3 µM), 86 % of control; on WNK2 (3 µM), 74 % of control.

The record behind these values is publication PMC11167047 (Cell Death Discovery, 2024).
